Source: PMC7996328, “Design, Synthesis, and Biological Evaluation of a Series of 5- and 7-Hydroxycoumarin Derivatives as 5-HT1A Serotonin Receptor Antagonists” (Pharmaceuticals, 2021)
Entries after “also recorded” stand apart in the source; their conditions may differ. Like-named read-outs stand apart in the source and are kept apart here.

Columns and labels:
5-HT2A receptor = target: T1, 5-HT2A receptor (Rattus norvegicus, UniProt P14842); assay: 5-HT2A competition binding assay, [3H]ketanserin, frontal cortex homogenates; details: [3H]ketanserin 1 nM
T1 construct: from tissue; host or cells: rat frontal cortex (male SD), membrane homogenate
T1 sequence (P14842 whole entry): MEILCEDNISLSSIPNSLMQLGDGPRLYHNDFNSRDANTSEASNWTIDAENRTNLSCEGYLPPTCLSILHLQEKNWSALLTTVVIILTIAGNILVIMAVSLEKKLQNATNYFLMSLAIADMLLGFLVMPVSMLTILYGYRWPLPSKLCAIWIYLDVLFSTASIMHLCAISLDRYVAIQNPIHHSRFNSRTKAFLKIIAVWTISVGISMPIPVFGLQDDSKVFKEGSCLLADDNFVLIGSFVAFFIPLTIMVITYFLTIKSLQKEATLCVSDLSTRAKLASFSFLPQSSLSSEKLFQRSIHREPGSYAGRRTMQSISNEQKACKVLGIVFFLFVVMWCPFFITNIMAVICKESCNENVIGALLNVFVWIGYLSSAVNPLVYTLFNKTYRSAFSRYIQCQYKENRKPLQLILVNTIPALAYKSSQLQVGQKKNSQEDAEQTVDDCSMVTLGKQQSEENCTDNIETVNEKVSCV
Protocol: Male SD rats were decapitated and their brains removed and placed on ice. Frontal cortices were homogenized with a glass homogenizer in 30 vol ice-cold homogenization buffer (50 mM Tris-HCl. 1 mM EDTA. 5 mM MgCl2. pH 7.4). Next, the homogenate was centrifuged at 20,000× g for 15 min at 4 °C. […] The suspension was again centrifuged at 20,000× g for 15 min at 4 °C. The pellet was resuspended in 10 vol. 50 mM Tris-HCl (pH 7.4) and the centrifugation step was repeated. The final pellet was suspended in 10 vol 50 mM Tris-HCl (pH 7.4) and stored at −80 °C.
Non-specific binding was determined in the presence of 10 μM mianserin. After incubation, the reaction mixture was deposited onto UniFilter-96 GF/B plates with the aid of a FilterMate-96 Harvester. Filter plates were presoaked beforehand with 0.4% PEI for 1 h. Next, each filter well was washed with 1.75 mL of 50 mM Tris-HCl (pH 7.4) and left to dry on a heating block set to 50 °C for 2 h. Then 45 µL of Microscint-20 scintillation fluid was added to each filter well and left to equilibrate overnight. Filter-bound radioactivity was counted in a MicroBeta^2 Microplate Counter. Binding curves were fitted with one site non-linear regression. Affinity was presented as the inhibitory constant (pKi ± SEM and Ki ± SEM) from two or three separate experiments.

5-HT1A receptor = target: T2, 5-HT1A receptor (Rattus norvegicus, UniProt P19327); assay: Antagonist activity for the 5-HT1A receptor, [35S]GTPγS assay in hippocampal homogenates; type: biochemical; details: 8-OH-DPAT 1.4 × 10^−7 M, mean ± SEM; for EC50 (nM ± SEM) / EC50: antagonistic activity
T2 construct: Hippocampal homogenates (15 μg/mL) were added to each tube as the 5-HT1A receptor source; from tissue; host or cells: rat hippocampus (male Sprague-Dawley), membrane homogenate
T2 sequence (P19327 1-422): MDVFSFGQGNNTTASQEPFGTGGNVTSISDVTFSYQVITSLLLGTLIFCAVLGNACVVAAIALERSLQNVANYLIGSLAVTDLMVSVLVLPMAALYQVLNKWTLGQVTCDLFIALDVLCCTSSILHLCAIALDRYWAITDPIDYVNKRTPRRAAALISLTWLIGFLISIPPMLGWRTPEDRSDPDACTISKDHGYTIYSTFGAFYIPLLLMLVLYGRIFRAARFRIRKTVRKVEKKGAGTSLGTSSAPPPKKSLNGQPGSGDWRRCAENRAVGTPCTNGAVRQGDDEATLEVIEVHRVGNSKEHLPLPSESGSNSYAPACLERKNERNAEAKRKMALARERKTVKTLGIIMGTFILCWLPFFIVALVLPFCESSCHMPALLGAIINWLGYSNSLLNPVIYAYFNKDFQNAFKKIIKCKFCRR
Protocol: Male Sprague–Dawley rats were decapitated, their brains removed, and placed on ice. Hippocampi were dissected and homogenized with a glass homogenizer in 30 vol. ice-cold TED buffer (50 mM Tris-HCl, 1 mM EDTA, 1mM dithiotheritol, pH 7.4). Next, the homogenate was centrifuged at 21,000× g for 30 min at 4 °C. […] The suspension was centrifuged again at 21,000× g for 30 min at 4 °C. The pellet was resuspended in 30 vol. TED buffer (pH 7.4) and the centrifugation step was repeated. The final pellet was suspended in 10 vol 50 mM Tris-HCl (pH 7.4) and stored at −80 °C until use.
Serial dilutions of the compounds tested (10^−10–10^−5 M) were incubated in triplicate with 0.8 nM [^35S]GTPγS in assay buffer (50 mM Tris-HCl, pH = 7.4, 1 mM EGTA, 3 mM MgCl2, 100 mM NaCl, 30 µM GDP) and 8-OH-DPAT (final concentration 1.4 × 10^−7 M) in the final assay volume of 250 µL. Hippocampal homogenates (15 μg/mL) were added to each tube as the 5-HT1A receptor source. […] Non-specific binding was determined with 10 µM of unlabeled GTPγS. […] Next, 96-well Unifilter® Plates (Perkin Elmer, Waltham, MA, USA) were presoaked for 1 h with 50 mM Tris-HCl (pH = 7.4) before harvesting. The reaction was terminated by vacuum filtration onto filter plates with the FilterMate Harvester® (Perkin Elmer, Waltham, MA, USA). The samples were then rapidly washed with 2 mL of 50 mM Tris-HCl (pH = 7.4) buffer. Filter plates were dried for 2 h at 50 °C. After drying, 45 µL of EcoScint-20 scintillant (Perkin Elmer) was added to every well. Radioactivity was counted in a Trilux MicroBeta^2 counter (Perkin Elmer). Data were analyzed with GraphPad Prism 5.0 software (GraphPad Software, San Diego, CA, USA, www.graphpad.com). Curves were fitted with a one-site non-linear regression model. Efficacy (Emax) and half maximal inhibitory concentration (IC50) were calculated from the Cheng–Prusoff equation and expressed as means ± SEM.

[1] = read-out: Ki (nM ± SEM) (converted)

pIC50 ± SEM (5-HT1A receptor) | SMILES | Ki (5-HT2A receptor; [1]) [nM] | melting point [°C] | EC50 (nM ± SEM) (5-HT1A receptor) | IC50 (5-HT1A receptor) [µM] | EC50 (5-HT1A receptor) [nM] | Ki (5-HT2A receptor; read-out: pKi (M ± SEM) (converted)) [nM]
no activity | Cc1cc(C)cc(N2CCN(CCOc3cc(C)cc4oc(=O)cc(C)c34)CC2)c1 [Compound 2h, 5-(2-(4-(3,5-dimethylphenyl)piperazin-1-yl)ethoxy)-4,7-dimethyl-2H-chromen-2-one] | 2920 ± 992 | 149 to 150 | did not show any activity; also recorded: no activity |  |  | 
 | Cc1cc(OCCN2CCN(c3cccc(Cl)c3Cl)CC2)c2c(C)cc(=O)oc2c1 [Compound 2i, 5-(2-(4-(2,3-dichlorophenyl)piperazin-1-yl)ethoxy)-4,7-dimethyl-2H-chromen-2-one] | 4310 ± 1550 | 142 to 145 |  | 398 | 366000 | 
no activity | Cc1cc(OCCN2CCN(c3ccccc3C#N)CC2)c2c(C)cc(=O)oc2c1 [Compound 2j, 5-(2-(4-(2-cyanophenyl)piperazin-1-yl)ethoxy)-4,7-dimethyl-2H-chromen-2-one] | 5620 ± 1850 | 127 to 129 | did not show any activity; also recorded: no activity |  |  | 
 | CC(=O)c1c(C)cc2oc(=O)cc(C)c2c1OCCCCCN1CCN(c2ccccc2F)CC1 [Compound 3b, 6-acetyl-5-(5-(4-(2-fluorophenyl)piperazin-1-yl)pentyloxy)-4,7-dimethyl-2H-chromen-2-one] | 1220 ± 166 | 137 to 139 |  | 20 | 19200 | 1170
 | COc1cccc(N2CCN(CCCCCOc3c(C(C)=O)c(C)cc4oc(=O)cc(C)c34)CC2)c1 [Compound 3c, 6-acetyl-5-(5-(4-(3-methoxyphenyl)piperazin-1-yl)pentyloxy)-4,7-dimethyl-2H-chromen-2-one] | 492 ± 99.7 | 86 to 88 |  | 1.58 | 1550 ± 190 | 
 | CC(=O)c1c(C)cc2oc(=O)cc(C)c2c1OCCCCCN1CCN(c2cc(C)ccc2C)CC1 [Compound 3d, 6-acetyl-5-(5-(4-(2,5-dimethylphenyl)piperazin-1-yl)pentyloxy)-4,7-dimethyl-2H-chromen-2-one] | 1940 ± 388 | 97 to 99 |  | 10 | 9430 ± 1040 | 
 | CC(=O)c1c(C)cc2oc(=O)cc(C)c2c1OCCCCCN1CCN(c2cccc(F)c2)CC1 [Compound 3e, 6-acetyl-5-(5-(4-(3-fluorophenyl)piperazin-1-yl)pentyloxy)-4,7-dimethyl-2H-chromen-2-one] | 1420 ± 426 | 150 to 152 |  | 0.708 | 702 ± 112 | 
 | CC(=O)c1c(C)cc2oc(=O)cc(C)c2c1OCCCCCN1CCN(c2ccccc2Br)CC1 [Compound 3f, 6-acetyl-5-(5-(4-(2-bromophenyl)piperazin-1-yl)pentyloxy)-4,7-dimethyl-2H-chromen-2-one] | 354 ± 110 | 108 to 109 |  | 0.692 | 689 ± 138 | 
 | CC(=O)c1c(C)cc2oc(=O)cc(C)c2c1OCCCCCN1CCN(c2cccc(Br)c2)CC1 [Compound 3g, 6-acetyl-5-(5-(4-(3-bromophenyl)piperazin-1-yl)pentyloxy)-4,7-dimethyl-2H-chromen-2-one] | 664 ± 154 | 100 to 102 |  | 1.29 | 1280 ± 254 | 
 | CC(=O)c1c(C)cc2oc(=O)cc(C)c2c1OCCCCCN1CCN(c2cc(C)cc(C)c2)CC1 [Compound 3h, 6-acetyl-5-(5-(4-(3,5-dimethylphenyl)piperazin-1-yl)pentyloxy)-4,7-dimethyl-2H-chromen-2-one] | 1800 ± 521 | 100 to 102 |  | 1.26 | 1240 ± 112 | 
 | CC(=O)c1c(C)cc2oc(=O)cc(C)c2c1OCCCCCN1CCN(c2cccc(Cl)c2Cl)CC1 [Compound 3i, 6-acetyl-5-(5-(4-(2,3-dichlorophenyl)piperazin-1-yl)pentyloxy)-4,7-dimethyl-2H-chromen-2-one] | 486 ± 102 | 129 to 130 |  | 15.8 | 15400 | 
 | COc1ccccc1N1CCN(CCOc2c(C(C)=O)c(C)cc3oc(=O)cc(C)c23)CC1 [Compound 4a, 6-acetyl-5-(2-(4-(2-methoxyphenyl)piperazin-1-yl)ethoxy)-4,7-dimethyl-2H-chromen-2-one] | 5210 ± 1250 | 132 to 134 |  | 0.1 | 91.6 ± 13.3 | 
 | CC(=O)c1c(C)cc2oc(=O)cc(C)c2c1OCCN1CCN(c2ccccc2F)CC1 [Compound 4b, 6-acetyl-5-(2-(4-(2-fluorophenyl)piperazin-1-yl)ethoxy)-4,7-dimethyl-2H-chromen-2-one] | 7050 ± 1650 | 118 to 119 |  | 5.01 | 5000 ± 218 | 
 | COc1cccc(N2CCN(CCOc3c(C(C)=O)c(C)cc4oc(=O)cc(C)c34)CC2)c1 [Compound 4c, 6-acetyl-5-(2-(4-(3-methoxyphenyl)piperazin-1-yl)ethoxy)-4,7-dimethyl-2H-chromen-2-one] | 513 ± 137 | 75 to 76 |  | 5.01 | 5010 ± 117 | 
 | CC(=O)c1c(C)cc2oc(=O)cc(C)c2c1OCCN1CCN(c2cccc(F)c2)CC1 [Compound 4e, 6-acetyl-5-(2-(4-(3-fluorophenyl)piperazin-1-yl)ethoxy)-4,7-dimethyl-2H-chromen-2-one] | 3860 ± 810 | 135 to 136 |  | 0.501 | 527 ± 191 | 
 | CC(=O)c1c(C)cc2oc(=O)cc(C)c2c1OCCN1CCN(c2ccccc2Br)CC1 [Compound 4f, 6-acetyl-5-(2-(4-(2-bromophenyl)piperazin-1-yl)ethoxy)-4,7-dimethyl-2H-chromen-2-one] | 10600 | 83 to 85 |  | 8.32 | 8320 ± 1500 | 
 | CC(=O)c1c(C)cc2oc(=O)cc(C)c2c1OCCN1CCN(c2cccc(Br)c2)CC1 [Compound 4g] | 3990 ± 745 | 127 to 128 |  | 12.6 | 11100 | 
 | CC(=O)c1c(C)cc2oc(=O)cc(C)c2c1OCCN1CCN(c2cccc(Cl)c2Cl)CC1 [Compound 4i, 6-acetyl-5-(2-(4-(2,3-dichlorophenyl)piperazin-1-yl)ethoxy)-4,7-dimethyl-2H-chromen-2-one] | 1640 ± 344 | 162 to 163 |  | 3.16 | 3100 ± 148 | 
 | CC(=O)c1c(C)cc2oc(=O)cc(C)c2c1OCCN1CCN(c2ccccc2C#N)CC1 [Compound 4j, 6-acetyl-5-(2-(4-(2-cyanophenyl)piperazin-1-yl)ethoxy)-4,7-dimethyl-2H-chromen-2-one] | 2430 ± 374 | 153 to 155 |  | 0.501 | 538 ± 105 | 
